Assay: in vitro dissolution test (concentration enhancement) in PBS, microcentrifuge method
Type: physicochemical
Conditions: PBS pH 6.5, 37° C.
Experimental: For this test, samples containing 7.2 mg of Example 1 were added to microcentrifuge tubes, in duplicate. The tubes were placed in a 37° C. temperature-controlled chamber, and 1.8 mL PBS at pH 6.5 and 290 mOsm/kg was added. The samples were quickly mixed using a vortex mixer for about 60 seconds. The samples were centrifuged at 13,000 G at 37° C. for 1 minute. […] The contents of the tubes were mixed on the vortex mixer and allowed to stand undisturbed at 37° C. until the next sample was taken. […] Control 1 and crystalline Drug 1 were tested using the same procedure. The concentration of drug obtained in these samples were used to determine the values of the maximum concentration of drug in the first ninety minutes (Cmax90) and the area under the curve of drug concentration versus time in the first ninety minutes (AUC90). […] The physical properties of the dispersions of Example 3, Control C2 and crystalline Drug 2 alone were determined as Example 1 with the following exceptions. […] Samples were analyzed by HPLC, with absorbance at 297 nm (Hewlett Packard 1100 HPLC, Zorbax SB C18 column, 35% acetonitrile/65% H2O).

[1] = Drug 2, 2000 μg/mL if all of the drug had dissolved

Structure (SMILES)	AUC90 [1]	Cmax90 [1]	AUC90 (Drug 1, area under drug concentration versus time curve in the first ninety minutes)	Cmax90 (Drug 1, maximum concentration of drug in the first ninety minutes)	Drug 1 Concentration (supernatant after centrifugation, time 0 min)	Drug 1 AUC (time 0 min)	Drug 1 AUC (time 4 min)	Drug 1 Concentration (time 4 min)	Drug 1 AUC (time 10 min)	Drug 1 Concentration (time 10 min)	Drug 1 AUC (time 20 min)	Drug 1 Concentration (time 20 min)	Drug 1 AUC (time 40 min)	Drug 1 Concentration (time 40 min)	Drug 1 AUC (time 90 min)	Drug 1 Concentration (time 90 min)	Drug 1 AUC (time 1200 min)	Drug 1 Concentration (time 1200 min)
O=C(N[C@@H](Cc1ccccc1)[C@@H](O)C(=O)N1C[C@@H](O)[C@@H](O)C1)c1cc2cc(Cl)ccc2[nH]1 [Crystalline Drug 2, 5-chloro-1H-indole-2-carboxylic acid [(1S)-benzyl-(2R)-hydroxy-3-((3R,4S)-dihydroxy-pyrrolidin-1-yl-)-3-oxypropyl]amide]	12,800 min*μg/mL	149 µg/mL																
CCOC(=O)N1c2ccc(C(F)(F)F)cc2C(N(Cc2cc(C(F)(F)F)cc(C(F)(F)F)c2)C(=O)OC)CC1CC (stereo not drawn) [Crystalline Drug 1, 4-[(3,5-bis-trifluoromethyl-benzyl)-methoxycarbonyl-amino]-2-ethyl-6-trifluoromethyl-3,4-dihydro-2H-quinoline-1-carboxylic acid ethyl ester]			<88 µg·min/mL	<1 µg/mL	0 µg/mL	0 min-μg/ml	<2 min-μg/ml	<1 µg/mL	<8 min-μg/ml	<1 µg/mL	<18 min-μg/ml	<1 µg/mL	<38 min-μg/ml	<1 µg/mL	<88 min-μg/ml	<1 µg/mL	<1,200 min-μg/ml	<1 µg/mL

— patent publication US6763607B2, “Method for making homogeneous spray-dried solid amorphous drug dispersions utilizing modified spray-drying apparatus” (Pfizer Inc., priority 2002, dated 2004)
